The values that follow are results of earlier work, collected in US20220125811A1, “INJECTABLE COMPOSITION FOR INDUCING LIPOLYSIS AND METHOD USING THE SAME” (priority 2020, published 2022).

For the series the following is noted: half saline; 5 mEq sodium bicarbonate (8.4%); 6 cc multivitamin formulation; 10 cc amino acid formulation.

Consider `O=C([O-])O.[Na+]` [sodium bicarbonate (8.4%), sodium bicarbonate], for which the “osmolarity of the ingredient amount used in the calculation” value is recorded as 10 mOsm.
